For data set [1], the target named is 72 kDa type IV collagenase (Homo sapiens, UniProt P08253). Kind of data set: Inhibition of Matrix metalloprotease-2.
Data set [2] concerns the target Matrix metalloproteinase-9 (Homo sapiens, UniProt P14780). Kind of data set: Inhibition of Matrix metalloprotease-9.
A further data set deals with Collagenase 3 (Homo sapiens, UniProt P45452). The data set can be described thus: Inhibition of Matrix metalloprotease-13.
Data set [3] in a line: Metabolic bioavailability was determined. The format is ADME, organism-based. The conditions noted are these: in vivo.
A further data set has as its target Stromelysin-1 (Homo sapiens, UniProt P08254). Kind of data set: Inhibition of Matrix metalloprotease-3.
The target in data set [4] is T1, Interstitial collagenase (Homo sapiens, UniProt P03956).
T1 sequence (P03956 whole entry): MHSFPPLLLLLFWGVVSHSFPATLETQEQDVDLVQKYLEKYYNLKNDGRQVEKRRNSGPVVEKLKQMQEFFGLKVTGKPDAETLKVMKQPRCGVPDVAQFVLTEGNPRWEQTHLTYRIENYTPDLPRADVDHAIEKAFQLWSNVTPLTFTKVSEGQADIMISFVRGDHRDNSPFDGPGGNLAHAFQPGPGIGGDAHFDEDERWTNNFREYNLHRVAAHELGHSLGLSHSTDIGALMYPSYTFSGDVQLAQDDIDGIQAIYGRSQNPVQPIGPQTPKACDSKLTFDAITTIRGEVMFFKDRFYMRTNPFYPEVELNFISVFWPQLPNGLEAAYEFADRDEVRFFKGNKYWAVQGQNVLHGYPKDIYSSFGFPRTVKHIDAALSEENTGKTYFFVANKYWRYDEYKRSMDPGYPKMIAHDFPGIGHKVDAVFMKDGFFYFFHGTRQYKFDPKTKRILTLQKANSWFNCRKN
Kind of data set: Inhibition of Matrix metalloprotease-1.

In the next data set the test system is Homo sapiens. The data set can be described thus: […] absorption in Caco-2 cell line monolayers was determined. It is filed as ADME.
Data set [5] has as its target T1, Interstitial collagenase. The data set can be described thus: Inhibition ofMatrix metalloprotease-1.

Sequence of Matrix metalloproteinase-9 (P14780 whole entry): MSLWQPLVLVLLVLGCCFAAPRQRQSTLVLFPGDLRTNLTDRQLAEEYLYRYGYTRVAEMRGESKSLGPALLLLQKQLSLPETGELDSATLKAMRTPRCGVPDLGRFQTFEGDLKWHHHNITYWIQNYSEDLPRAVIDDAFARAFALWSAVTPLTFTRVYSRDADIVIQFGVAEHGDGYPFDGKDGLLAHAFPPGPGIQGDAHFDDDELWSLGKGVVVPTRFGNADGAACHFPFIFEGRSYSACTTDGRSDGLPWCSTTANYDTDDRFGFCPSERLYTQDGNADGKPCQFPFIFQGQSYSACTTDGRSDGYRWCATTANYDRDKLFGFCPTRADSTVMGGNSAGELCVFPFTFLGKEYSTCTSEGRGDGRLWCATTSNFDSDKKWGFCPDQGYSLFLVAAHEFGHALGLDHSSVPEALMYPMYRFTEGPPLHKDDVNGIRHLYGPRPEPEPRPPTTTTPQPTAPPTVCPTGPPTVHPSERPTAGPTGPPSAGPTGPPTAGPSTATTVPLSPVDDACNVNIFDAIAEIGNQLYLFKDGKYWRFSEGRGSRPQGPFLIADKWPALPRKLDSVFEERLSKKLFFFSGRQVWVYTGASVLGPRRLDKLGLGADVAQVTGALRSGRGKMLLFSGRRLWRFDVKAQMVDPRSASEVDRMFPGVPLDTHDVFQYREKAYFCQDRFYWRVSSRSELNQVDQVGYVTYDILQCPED
Sequence of Stromelysin-1 (P08254 whole entry): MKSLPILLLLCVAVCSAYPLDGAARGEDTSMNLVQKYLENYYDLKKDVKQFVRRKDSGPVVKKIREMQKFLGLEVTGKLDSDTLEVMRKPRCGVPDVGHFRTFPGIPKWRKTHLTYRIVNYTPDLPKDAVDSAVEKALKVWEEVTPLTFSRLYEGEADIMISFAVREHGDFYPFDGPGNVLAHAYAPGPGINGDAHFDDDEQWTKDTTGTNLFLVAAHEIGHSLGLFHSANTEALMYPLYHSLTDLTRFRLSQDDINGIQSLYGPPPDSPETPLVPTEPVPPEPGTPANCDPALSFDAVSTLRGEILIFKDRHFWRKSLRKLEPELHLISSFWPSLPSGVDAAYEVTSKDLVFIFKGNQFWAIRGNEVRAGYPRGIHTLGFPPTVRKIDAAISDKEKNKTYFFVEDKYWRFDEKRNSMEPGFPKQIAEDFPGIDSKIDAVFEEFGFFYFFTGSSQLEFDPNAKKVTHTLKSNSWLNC
Sequence of 72 kDa type IV collagenase (P08253 whole entry): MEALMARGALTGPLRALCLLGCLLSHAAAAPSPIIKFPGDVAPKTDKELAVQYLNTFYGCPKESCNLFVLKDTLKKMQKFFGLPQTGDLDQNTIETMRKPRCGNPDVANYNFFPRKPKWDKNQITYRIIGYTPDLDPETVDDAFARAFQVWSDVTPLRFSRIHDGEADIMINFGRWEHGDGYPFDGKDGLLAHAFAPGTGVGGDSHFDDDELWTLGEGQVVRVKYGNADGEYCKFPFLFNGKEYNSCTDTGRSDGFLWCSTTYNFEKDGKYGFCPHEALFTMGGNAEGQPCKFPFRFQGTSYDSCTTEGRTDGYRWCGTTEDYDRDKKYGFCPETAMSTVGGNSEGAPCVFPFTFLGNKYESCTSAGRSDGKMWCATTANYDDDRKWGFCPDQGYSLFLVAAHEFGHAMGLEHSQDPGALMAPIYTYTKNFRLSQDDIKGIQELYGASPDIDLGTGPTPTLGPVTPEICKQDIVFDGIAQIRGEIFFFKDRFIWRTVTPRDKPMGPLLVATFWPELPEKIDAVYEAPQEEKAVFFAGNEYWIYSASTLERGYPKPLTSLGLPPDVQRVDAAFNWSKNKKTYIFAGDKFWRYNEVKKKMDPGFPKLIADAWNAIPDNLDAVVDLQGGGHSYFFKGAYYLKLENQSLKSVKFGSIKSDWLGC

As for `O=C(NO)C(CCn1nnc2ccccc2c1=O)COCCc1ccc(-c2ccc(Cl)cc2)cc1` (stereo not drawn), the half-maximal inhibitory concentration (IC50) – broadly, the point on the concentration scale where inhibition reaches its midpoint – was determined as 25 nM in data set [1], 3.6 nM in data set [2], 67 nM against Collagenase 3 and 4.3 nM at Stromelysin-1. In data set [3], this molecule yielded an MF of 23%.

`O=C(NO)C(CCn1c(=O)[nH]c2ccccc2c1=O)COc1ccc(-c2ccccc2)cc1` (stereo not drawn): the IC50 was determined as 24 nM in data set [1], 25 nM in data set [2], 65 nM against Collagenase 3 and 69 nM on Stromelysin-1. Also, the MF in data set [3] was 52%.

Turning to `O=C(NO)C(CCN1C(=O)c2ccccc2C1=O)COc1ccc(-c2ccccc2)cc1` (stereo not drawn), the concentration for half-maximal inhibition (IC50) worked out at 3 nM in data set [1]; 5 nM in data set [2]; 768 nM at Interstitial collagenase [4]; 7 nM on Collagenase 3; 16 nM on Stromelysin-1.

On to `O=C(NO)C(CCn1ncc2ccccc2c1=O)COc1ccc(-c2ccccc2)cc1` (stereo not drawn), for which the concentration for half-maximal inhibition (IC50) in data set [1] is 6 nM; in data set [2] it was 33 nM; against Interstitial collagenase [4], above 10000 nM; on Collagenase 3, 101 nM; against Stromelysin-1 it was 62 nM. For the same molecule, the MF in data set [3] is on record as 13%.

Regarding `O=C(NO)C(CCN1C(=O)c2ccccc2S1(=O)=O)COc1ccc(-c2ccccc2)cc1` (stereo not drawn), the concentration for half-maximal inhibition (IC50) was 7 nM in data set [1]; 16 nM in data set [2]; above 100000 nM on Interstitial collagenase [4]; 42 nM on Collagenase 3; 23 nM against Stromelysin-1. Further, the MF in data set [3] came to 30%.

Regarding `O=C(NO)C(CCn1nnc2ccccc2c1=O)COc1ccc(-c2ccc(Cl)cc2)cc1` (stereo not drawn), the half-inhibitory concentration (IC50) in data set [1] came out at 0.1 nM; in data set [2] it was 0.6 nM; against Interstitial collagenase [4] it was 74 nM; against Collagenase 3, 0.016 nM; at Stromelysin-1 it was 3.2 nM. For the same molecule, in the data set with Homo sapiens, the A is recorded as 75%. In data set [3], this molecule had an MF of 35%.

Turning to `N#Cc1ccc(-c2ccc(OCC(CCn3nnc4ccccc4c3=O)C(=O)NO)cc2)cc1` (stereo not drawn), the concentration for half-maximal inhibition (IC50) worked out at 0.4 nM in data set [1]; 0.6 nM in data set [2]; 116 nM at Interstitial collagenase [4]; 0.6 nM against Collagenase 3; 1.1 nM at Stromelysin-1. The A in the data set with Homo sapiens was determined as 96%. For the same molecule, the MF in data set [3] is given as 42%.

For the molecule `O=C(NO)C(CCCN1C(=O)c2ccccc2C1=O)COc1ccc(-c2ccccc2)cc1` (stereo not drawn), the 50% inhibitory concentration (IC50) in data set [1] was 82 nM; in data set [2], 221 nM; against Interstitial collagenase [4] it was above 1000 nM; at Stromelysin-1, 313 nM.

As for `CN1C(=O)N(CCC(COc2ccc(-c3ccccc3)cc2)C(=O)NO)C(=O)C1(C)C` (stereo not drawn), the IC50 in data set [1] was 36 nM; in data set [2], 199 nM; on Collagenase 3, 84 nM; against Interstitial collagenase [5], above 1000 nM; against Stromelysin-1, 71 nM. In addition, in data set [3], the MF was determined as 17%.

Regarding `O=C(NO)C(CCn1nnc2ccccc2c1=O)COc1ccc(-c2ccccc2)cc1` (stereo not drawn), the IC50 in data set [1] worked out at 0.5 nM; in data set [2], 1 nM; at Interstitial collagenase [4], 31 nM; on Collagenase 3 it was 3 nM; on Stromelysin-1, 5 nM. In the data set with Homo sapiens, this molecule displayed an A of 80%. In data set [3], this molecule yielded an MF of 29%.

With `N#Cc1ccc(-c2ccc(OCCC(=O)NO)cc2)cc1`, the 50% inhibitory concentration (IC50) in data set [1] was 49 nM; in data set [2] it was 655 nM; at Interstitial collagenase [4] it was above 10 nM; on Collagenase 3 it was 64 nM; against Stromelysin-1 it was 47 nM.

The values above are taken from ChEMBL document CHEMBL1134157, “General synthesis of alpha-substituted 3-bisaryloxy propionic acid derivatives as specific MMP inhibitors” (Bioorg Med Chem Lett, 2001).
